Results published in patent US20110319491A1, “ANHYDROUS DEPIGMENTING COMPOSITIONS COMPRISING, WITHIN THE FATTY PHASE THEREOF, A SOLUBILIZED PHENOLIC COMPOUND AND A RETINOID” (GALDERMA RESEARCH & DEVELOPMENT, priority 2009, published 2011).
Like-named read-outs stand apart in the source and are kept apart here.

What was measured:
[1] = Chemical stability of the formulations (HPLC assay of the active agents); format: physicochemical
Procedure: The chemical stability is measured by assaying the active agents by external calibration in HPLC and the results are expressed as a % of […] relative to the theoretical value.

[2] = in all the solvents that may be used for retinoids; cited from earlier work
[3] = cited from earlier work
[4] = Stability of hydroquinone in solvent oils and lipophilic surfactants (HPLC assay, colour)
[5] = in composition of Example 2, 40° C., T + 1 M
[6] = in composition of Example 2, 40° C., T + 2 M
[7] = in composition of Example 2, 40° C., T + 3 M
[8] = in composition of Example 2, RT, T + 1 M
[9] = in composition of Example 2, RT, T + 2 M
[10] = in composition of Example 2, RT, T + 3 M
[11] = in Cremophor EL, 1 month, 40° C.
[12] = in Cremophor EL, 3 months, 40° C.
[13] = in Crodamol DA, 1 month, 40° C.
[14] = in Crodamol DA, 3 months, 40° C.
[15] = in Ethanol/water (20/80), 1 month, 40° C.
[16] = in Ethanol/water (20/80), 1 month, RT
[17] = in Ethanol/water (20/80), 3 months, 40° C.
[18] = in Ethanol/water (20/80), 3 months, RT
[19] = in Propylene glycol, 1 month, 40° C.
[20] = in Propylene glycol, 1 month, RT
[21] = in Propylene glycol, 3 months, 40° C.
[22] = in Propylene glycol, 3 months, RT

COc1ccc(-c2ccc3cc(C(=O)O)ccc3c2)cc1C12CC3CC(CC(C3)C1)C2 [Adapalene, 6-(3-(1-adamantyl)-4-methoxyphenyl)-2-naphthoic acid]
Chemical stability: adapalene assay, % relative to the theoretical value [1, 5]: 92.4% | Chemical stability: adapalene assay, % relative to the theoretical value [1, 6]: 96.8% | Chemical stability: adapalene assay, % relative to the theoretical value [1, 7]: 94.5% | Chemical stability: adapalene assay, % relative to the theoretical value [1, 8]: 94% | Chemical stability: adapalene assay, % relative to the theoretical value [1, 9]: 97.4% | Chemical stability: adapalene assay, % relative to the theoretical value [1, 10]: 95.3% | Chemical stability: adapalene assay, % relative to the theoretical value ([1]; in composition of Example 3, 4° C., T + 1 M): 104% | Chemical stability: adapalene assay, % relative to the theoretical value ([1]; in composition of Example 3, 4° C., T + 2 M): 107.0% | Chemical stability: adapalene assay, % relative to the theoretical value ([1]; in composition of Example 3, 40° C., T + 1 M): 108% | Chemical stability: adapalene assay, % relative to the theoretical value ([1]; in composition of Example 3, 40° C., T + 2 M): 106.0% | Chemical stability: adapalene assay, % relative to the theoretical value ([1]; in composition of Example 3, RT, T0): 108.7% | Chemical stability: adapalene assay, % relative to the theoretical value ([1]; in composition of Example 3, RT, T + 1 M): 106% | Chemical stability: adapalene assay, % relative to the theoretical value ([1]; in composition of Example 3, RT, T + 2 M): 106.0% | Solubility of adapalene (in words) [2]: insoluble

Oc1ccc(O)cc1 [Hydroquinone, hydroquinone]
Chemical stability: hydroquinone assay, % relative to the theoretical value [1, 5]: 97.6% | Chemical stability: hydroquinone assay, % relative to the theoretical value [1, 6]: 100.8% | Chemical stability: hydroquinone assay, % relative to the theoretical value [1, 7]: 99.2% | Chemical stability: hydroquinone assay, % relative to the theoretical value ([1]; in composition of Example 2, 40° C., T + 6 M): 97.2% | Chemical stability: hydroquinone assay, % relative to the theoretical value [1, 8]: 98.9% | Chemical stability: hydroquinone assay, % relative to the theoretical value [1, 9]: 101.8% | Chemical stability: hydroquinone assay, % relative to the theoretical value [1, 10]: 98.8% | Chemical stability: hydroquinone assay, % relative to the theoretical value ([1]; in composition of Example 2, RT, T + 6 M): 100.6% | Max. solubility (w/w) (in Arlamol E): 11.9 w/w | Max. solubility (w/w) (in Caprylic capric triglycerides): 1.7 w/w | Max. solubility (w/w) (in Castor oil): 6.5 w/w | Max. solubility (w/w) (in Cremophor EL): 27.9 w/w | Solubility of hydroquinone (in words) (in Cremophor EL): high solubility | Max. solubility (w/w) (in Crodamol DA): 10.7 w/w | Max. solubility (w/w) (in Ethanol/water (20/80)): 17 w/w | Max. solubility (w/w) (in Glycerol): 15.6 w/w | Max. solubility (w/w) (in Labrasol): 28.9 w/w | Max. solubility (w/w) (in Lauroglycol): 5.5 w/w | Max. solubility (w/w) (in PEG 400): 19.8 w/w | Max. solubility (w/w) (in Propylene glycol): 15.6 w/w | Incidence of irritation ([3]; 2% hydroquinone concentration): virtually nonexistent | Incidence of irritation ([3]; 10% hydroquinone concentration): relatively high | Incidence of irritation ([3]; preparations with a 5% dose of hydroquinone): reduces greatly | % (HPLC assay, T0 = 100%) ([4]; in Arlamol E, 1 month, 40° C.): 95.5% | Colour ([4]; in Arlamol E, 1 month, 40° C.): Colourless | % (HPLC assay, T0 = 100%) ([4]; in Arlamol E, 1 month, RT): 95.9% | Colour ([4]; in Arlamol E, 1 month, RT): Colourless | % (HPLC assay, T0 = 100%) ([4]; in Arlamol E, 3 months, 40° C.): 96.0% | Colour ([4]; in Arlamol E, 3 months, 40° C.): Colourless | % (HPLC assay, T0 = 100%) ([4]; in Arlamol E, 3 months, RT): 95.9% | Colour ([4]; in Arlamol E, 3 months, RT): Colourless | % (HPLC assay, T0 = 100%) [4, 11]: 87.1% | Colour [4, 11]: Brown | % (HPLC assay, T0 = 100%) ([4]; in Cremophor EL, 1 month, RT): 91.4% | Colour ([4]; in Cremophor EL, 1 month, RT): Orange | % (HPLC assay, T0 = 100%) [4, 12]: 85.1% | Colour [4, 12]: Brown++ | % (HPLC assay, T0 = 100%) ([4]; in Cremophor EL, 3 months, RT): 87% | Colour ([4]; in Cremophor EL, 3 months, RT): Brown+ | Macroscopic stability of hydroquinone (in words) ([4]; in Cremophor EL, browning that becomes pronounced over time and with temperature): macroscopic instability | Chemical and physical stability of hydroquinone (in words) ([4]; in Crodamol DA, Arlamol E and Labrasol): good chemical and physical stability | % (HPLC assay, T0 = 100%) [4, 13]: 95.9% | Colour [4, 13]: Colourless | % (HPLC assay, T0 = 100%) ([4]; in Crodamol DA, 1 month, RT): 96.5% | Colour ([4]; in Crodamol DA, 1 month, RT): Colourless | % (HPLC assay, T0 = 100%) [4, 14]: 97.4% | Colour [4, 14]: Colourless | % (HPLC assay, T0 = 100%) ([4]; in Crodamol DA, 3 months, RT): 97.6% | Colour ([4]; in Crodamol DA, 3 months, RT): Colourless | % (HPLC assay, T0 = 100%) [4, 15]: 91.7% | Colour [4, 15]: Dark pink | % (HPLC assay, T0 = 100%) [4, 16]: 94.4% | Colour [4, 16]: Orange | % (HPLC assay, T0 = 100%) [4, 17]: 89.4% | Colour [4, 17]: Brown | % (HPLC assay, T0 = 100%) [4, 18]: 93.9% | Colour [4, 18]: Orange | % (HPLC assay, T0 = 100%) ([4]; in Glycerol, 1 month, 40° C.): 93.5% | Colour ([4]; in Glycerol, 1 month, 40° C.): Dark yellow | % (HPLC assay, T0 = 100%) ([4]; in Glycerol, 1 month, RT): 95.0% | Colour ([4]; in Glycerol, 1 month, RT): Yellow | % (HPLC assay, T0 = 100%) ([4]; in Glycerol, 3 months, 40° C.): 93.3% | Colour ([4]; in Glycerol, 3 months, 40° C.): Orange | % (HPLC assay, T0 = 100%) ([4]; in Glycerol, 3 months, RT): 93.0% | Colour ([4]; in Glycerol, 3 months, RT): Pink | % (HPLC assay, T0 = 100%) ([4]; in Labrasol, 1 month, 40° C.): 95.2% | Colour ([4]; in Labrasol, 1 month, 40° C.): Colourless | % (HPLC assay, T0 = 100%) ([4]; in Labrasol, 1 month, RT): 95.4% | Colour ([4]; in Labrasol, 1 month, RT): Colourless | % (HPLC assay, T0 = 100%) ([4]; in Labrasol, 3 months, 40° C.): 95.1% | Colour ([4]; in Labrasol, 3 months, 40° C.): Colourless | % (HPLC assay, T0 = 100%) ([4]; in Labrasol, 3 months, RT): 94.6% | Colour ([4]; in Labrasol, 3 months, RT): Colourless | % (HPLC assay, T0 = 100%) ([4]; in Miglyol, 1 month, 40° C.): 95% | Colour ([4]; in Miglyol, 1 month, 40° C.): Colourless | % (HPLC assay, T0 = 100%) ([4]; in Miglyol, 1 month, RT): 94.2% | Colour ([4]; in Miglyol, 1 month, RT): Colourless | % (HPLC assay, T0 = 100%) ([4]; in Miglyol, 3 months, 40° C.): 95% | Colour ([4]; in Miglyol, 3 months, 40° C.): Colourless | % (HPLC assay, T0 = 100%) ([4]; in Miglyol, 3 months, RT): 93.1% | Colour ([4]; in Miglyol, 3 months, RT): Colourless | % (HPLC assay, T0 = 100%) ([4]; in PEG 400, 1 month, 40° C.): 91.4% | Colour ([4]; in PEG 400, 1 month, 40° C.): Orange | % (HPLC assay, T0 = 100%) ([4]; in PEG 400, 1 month, RT): 93.4% | Colour ([4]; in PEG 400, 1 month, RT): Pink | % (HPLC assay, T0 = 100%) ([4]; in PEG 400, 3 months, 40° C.): 91.8% | Colour ([4]; in PEG 400, 3 months, 40° C.): Brown | % (HPLC assay, T0 = 100%) ([4]; in PEG 400, 3 months, RT): 89.0% | Colour ([4]; in PEG 400, 3 months, RT): Brown | % (HPLC assay, T0 = 100%) [4, 19]: 91.8% | Colour [4, 19]: Yellow | % (HPLC assay, T0 = 100%) [4, 20]: 97.0% | Colour [4, 20]: Colourless | % (HPLC assay, T0 = 100%) [4, 21]: 88.8% | Colour [4, 21]: Dark yellow | % (HPLC assay, T0 = 100%) [4, 22]: 94.2% | Colour [4, 22]: Yellow | Colour stability of hydroquinone (in words) ([4]; in solvents of the prior art such as glycols, RT and 40° C., absence of antioxidants): colouration is observed
